According to patent US9352015B2, “Antimicrobial peptides” (priority 2009, dated 2016):
≈ marks a conversion by molar mass, not a printed value. Where “and” joins values, the source holds several entries; their conditions need not be identical. Equal entries are not always repeated. Where two headings read alike, the source gives them in different places.

Key:
[1] = Hemolytic activity against human erythrocytes (HC50 / MHC, microtiter dilution); assay type: cell-based; details: human, 1% human erythrocytes, pH 7.4
Method: Hemoglobin release was determined spectrophotometrically at 570 nm. The hemolytic activity was determined as the peptide concentration that caused 50% hemolysis of erythrocytes after 18 h (HC50). […] HC50 was determined by a plot of peptide concentration versus percent lysis.

[2] = system: Methicillin Resistant Staphylococcus aureus (MRSA) and Staphylococcus aureus; assay type: cell-based
Method: (§1) Minimal inhibitory concentrations (MICs) are determined using a standard microtiter dilution method, with 3 sets of determinations, in LB (Luria-Bertani) no-salt medium (10 g of tryptone and 5 g of yeast extract per liter). In some cases, Mueller Hinton (MH) medium or Brain Heart Infusion (BHI) medium is used.
(§2) Briefly, cells were grown overnight at 37° C. in LB and diluted in the same medium. Serial dilutions of the peptides are added to the microtiter plates in a volume of 100 μl followed by 10 μl of bacteria to give a final inoculum of 5×10^5 colony-forming units/ml. Plates are incubated at 37° C. for 24 hours and MICs determined as the lowest peptide concentration that inhibited growth. Alternatively, minimal inhibitory concentrations are determined using a standard microtiter dilution method in a Mueller-Hinton (MH) medium. Briefly, cells are grown overnight at 37° C. in MH broth and diluted in the same medium. In some cases, serial dilutions of the peptides are added to the microtiter plates in a volume of 100 μl followed by 10 μl of bacteria to give a final inoculum of 1×10^5 colony-forming units/ml. Plates are incubated at 37° C. for 24 hours and MICs are determined as the lowest peptide concentration that inhibited growth.
Identification of Antimicrobial Peptides for Gram-positive Bacteria. In a manner similar to testing against gram-negative bacteria, experiments were carried out to screen the 14 peptides used to identify antimicrobial peptides with significant activity against A. baumanii shown above against 20 different clinical isolates of Methicillin Resistant Staphylococcus aureus (MRSA) and Staphylococcus aureus.

Acinetobacter baumannii = assay type: cell-based; details: for Acinetobacter baumannii MICGM: geometric mean, 11 different isolates, 24 hours at 37° C.
Method: as §1, §2
The biological activities of these six peptide analogs was determined against 11 clinical isolated of Acinetobacter baumannii (Table 9). Please note that the activities are reported in micromolar rather than microgram/ml. This allows a direct comparison on a molar basis with the effectiveness of molecules of different molecular weights whether peptides disclosed herein or antibiotics which in general are smaller in molecular mass. […] These are the highest antimicrobial activities observed in studies of antimicrobial peptides derived by modifying the peptide sequence of SEQ ID NO:24 (D1). D22 has the best hemolytic activity of the six analogs (D17-D22) and a therapeutic index of […] compared to […] for D1 (Table 9). D22 has no apparent advantage over D1 as determined in these experiments.

Pseudomonas aeruginosa = details: for Pseudomonas aeruginosa MICGM: geometric mean, 6 different isolates, 24 hours at 37° C.; for MIC PAO 1: 37° C., 24 h, strain PAO1; for MIC GM (geometric mean of the MIC values): six P. aeruginosa strains; for MIC CP 204: strain CP204; for MIC M 2: strain M2; for MIC PA 14: strain PA14; for MIC PAK: strain PAK; for MIC WR 5: strain WR5
[3] = RP-HPLC retention as measure of overall peptide hydrophobicity; assay type: physicochemical; details: for Change in hydrophobicity (retention time) relative to PVL: 80° C., polar face substitution
Method: Crude and purified peptides were analyzed on an Agilent 1100 series liquid chromatograph (Little Falls, Del.). Runs were performed on a Zorbax 300 SB-C8 column (150×2.1 mm I.D.; 5 μm particle size, 300 Å pore size) from Agilent Technologies using linear AB gradient (1% acetonitrile/min) and a flow rate of 0.25 ml/min, where eluant A was 0.2% aqueous TFA, pH 2 and eluant B was 0.2% TFA in acetonitrile.

[4] = RP-HPLC temperature profiling (peptide self-association parameter PA); assay type: physicochemical; details: enantiomer pairs of V681 analogs, 5° C. to 80° C., relative to peptide C
Method: Temperature profiling analyses were performed on the same column in 3° C. increments, from 5° C. to 80° C., using a linear AB gradient of 0.5% acetonitrile/min, as described previously (30, 53, 92, 93).
Peptide self-association (i.e., the ability to oligomerize/dimerize) in aqueous solution is a very important parameter for antimicrobial activity (53, 92, 93). Without wishing to be bound by any particular theory, the present inventors postulated that monomeric random-coil antimicrobial peptides are best suited to pass through the capsule and cell wall of microorganisms prior to penetration into the cytoplasmic membrane, induction of α-helical structure and disruption of membrane structure to kill target cells (93). Thus, if the self-association ability of a peptide in aqueous media is too strong (e.g., forming stable folded dimers through interaction of their non-polar faces) this could decrease the ability of the peptide to dissociate to monomer, in addition oligomerization of the peptide can prevent it from effectively passing through the capsule and cell wall to reach the membrane. The ability of the peptides in the present study to self-associate was determined by the technique of RP-HPLC temperature profiling at pH 2 (29, 30, 38). The reason pH 2 is used to determine self-association of cationic AMPs is that highly positively charged peptides are frequently not eluted from reversed-phase columns at pH 7 due to non-specific binding to negatively charged silanols on the column matrix. This is not a problem at pH 2 since the silanols are protonated (i.e., neutral) and non-specific electrostatic interactions are eliminated. At pH 2, the interactions between the peptide and the reversed-phase matrix involve ideal retention behavior, i.e., only hydrophobic interactions between the preferred binding domain (nonpolar face) of the amphipathic molecule and the hydrophobic surface of the column matrix are present (39). […] Control peptide C is a monomeric random coil peptide in both aqueous and hydrophobic media; thus, its linear decrease in peptide retention behavior with increasing temperature within the range of 5° C. to 80° C. represents only the general effects of temperature due to greater solute diffusivity and enhanced mass transfer between the stationary and mobile phase at higher temperatures (55). To allow for these general temperature effects, the data for the control peptide was subtracted from each temperature profile as shown in FIG. 2B. Thus, the peptide self-association parameter, PA, represents the maximum change in peptide retention time relative to the random coil peptide C. Note that the higher the PA value, the greater the self-association.

## CC[C@@H](C)[C@@H](NC(=O)[C@@H](CC(C)C)NC(=O)[C@@H](CCCCN)NC(=O)[C@@H](CC(C)C)NC(=O)[C@@H](CC(C)C)NC(=O)[C@H](NC(=O)[C@@H](CCCCN)NC(=O)[C@@H](CC(C)C)NC(=O)[C@@H](CCCCN)NC(=O)[C@@H](CCCCN)NC(=O)[C@@H](CCCCN)NC(=O)[C@@H](CCCCN)NC(=O)[C@@H](CC(C)C)NC(=O)[C@@H](CCCCN)NC(=O)[C@@H](CO)NC(=O)[C@@H](Cc1ccccc1)NC(=O)[C@H](NC(=O)[C@@H](CCCCN)NC(=O)[C@@H](CC(C)C)NC(=O)[C@@H](Cc1ccccc1)NC(=O)[C@@H](CO)NC(=O)[C@@H](CCCCN)NC(=O)[C@@H](Cc1c[nH]c2ccccc12)NC(=O)[C@@H](CCCCN)NC(C)=O)[C@H](C)O)[C@H](C)O)C(=O)N[C@H](CO)C(=O)N[C@H](CCCCN)C(N)=O [Peptide D12, Ac-KWKSFLKTFSKLKKKKLKTLLKLISK-amide]
[1]
  HC50 at 18 h: 18.3 µM
[2]
  MIC GM (geometric mean): 5.2 µM (≈ 16.7 µg/mL)
Acinetobacter baumannii
  MIC GM (geometric mean): 1.9 µM (≈ 6.09 µg/mL)
  Acinetobacter baumannii MICGM: 1.9 µM
Pseudomonas aeruginosa
  Pseudomonas aeruginosa MICGM: 3.9 µM

## CC[C@@H](C)[C@@H](NC(=O)[C@@H](CC(C)C)NC(=O)[C@@H](CCCCN)NC(=O)[C@@H](CC(C)C)NC(=O)[C@@H](CC(C)C)NC(=O)[C@H](NC(=O)[C@@H](Cc1c[nH]cn1)NC(=O)[C@@H](CC(C)C)NC(=O)[C@@H](CCCCN)NC(=O)[C@H](NC(=O)[C@@H](CCCCN)NC(=O)[C@@H](CCCCN)NC(=O)[C@@H](CC(C)C)NC(=O)[C@@H](CO)NC(=O)[C@@H](CCCCN)NC(=O)[C@@H](Cc1ccccc1)NC(=O)[C@H](NC(=O)[C@@H](CCCCN)NC(=O)[C@@H](CC(C)C)NC(=O)[C@@H](Cc1ccccc1)NC(=O)[C@@H](CO)NC(=O)[C@@H](CCCCN)NC(=O)[C@@H](Cc1c[nH]c2ccccc12)NC(=O)[C@@H](CCCCN)NC(C)=O)[C@H](C)O)[C@H](C)O)[C@H](C)O)C(=O)N[C@H](CO)C(=O)N[C@H](CO)C(N)=O [Peptide D5, Ac-KWKSFLKTFKSLKKTKLHTLLKLISS-amide]
[1]
  HC50 at 18 h: 47 µg/mL and 14.9 µM
[2]
  MIC GM (geometric mean): 5.4 µM (≈ 17 µg/mL)
Acinetobacter baumannii
  MIC GM (geometric mean): 1.7 µM (≈ 5.35 µg/mL)
  Acinetobacter baumannii MICGM: 1.7 µM
[3]; pH 2, room temperature
  Hydrophobicity (retention time in RP-HPLC): 80.44 min
Pseudomonas aeruginosa; Brain Heart Infusion medium
  MIC PAO 1: 31.3 µg/mL (≈ 9.95 µM)
  MIC GM (geometric mean of the MIC values): 22.1 µg/mL
  MIC CP 204: 31.3 µg/mL (≈ 9.95 µM)
  MIC M 2: 15.6 µg/mL (≈ 4.96 µM)
  MIC PA 14: 15.6 µg/mL (≈ 4.96 µM)
  MIC PAK: 31.3 µg/mL (≈ 9.95 µM)
  MIC WR 5: 15.6 µg/mL (≈ 4.96 µM)
Pseudomonas aeruginosa; Mueller Hinton medium
  MIC PAO 1: 7.8 µg/mL (≈ 2.48 µM)
  MIC GM (geometric mean of the MIC values): 11.0 µg/mL
  MIC CP 204: 15.6 µg/mL (≈ 4.96 µM)
  MIC M 2: 7.8 µg/mL (≈ 2.48 µM)
  MIC PA 14: 7.8 µg/mL (≈ 2.48 µM)
  MIC PAK: 15.6 µg/mL (≈ 4.96 µM)
  MIC WR 5: 15.6 µg/mL (≈ 4.96 µM)
Pseudomonas aeruginosa
  Pseudomonas aeruginosa MICGM: 3.5 µM

## PAL: V681 with L-Ala at position 11, SEQ ID NO:14 (KWKSFLKTFKAAVKTVLHTALKAISS)
[3]
  Change in hydrophobicity (retention time) relative to PVL: +0.45 min

## D-V681: D-enantiomer of V681 (KWKSFLKTFKSAVKTVLHTALKAISS; all D-amino acids)
[4]
  PA (peptide self-association parameter): 7.2

## CC[C@@H](C)[C@@H](NC(=O)[C@@H](C)NC(=O)[C@@H](CCCCN)NC(=O)[C@@H](CC(C)C)NC(=O)[C@@H](CC(C)C)NC(=O)[C@H](NC(=O)[C@@H](CCCCN)NC(=O)[C@@H](CC(C)C)NC(=O)[C@@H](CCCCN)NC(=O)[C@@H](CCCCN)NC(=O)[C@@H](CCCCN)NC(=O)[C@@H](CCCCN)NC(=O)[C@@H](CC(C)C)NC(=O)[C@@H](CCCCN)NC(=O)[C@@H](CO)NC(=O)[C@@H](Cc1ccccc1)NC(=O)[C@H](NC(=O)[C@@H](CCCCN)NC(=O)[C@@H](CC(C)C)NC(=O)[C@@H](Cc1ccccc1)NC(=O)[C@@H](CO)NC(=O)[C@@H](CCCCN)NC(=O)[C@@H](Cc1c[nH]c2ccccc12)NC(=O)[C@@H](CCCCN)NC(C)=O)[C@H](C)O)[C@H](C)O)C(=O)N[C@H](CO)C(=O)N[C@H](CCCCN)C(N)=O [Peptide D13, Ac-KWKSFLKTFSKLKKKKLKTLLKAISK-amide]
[1]
  HC50 at 18 h: 106 µM
[2]
  MIC GM (geometric mean): 8.6 µM (≈ 27.2 µg/mL)
Acinetobacter baumannii
  MIC GM (geometric mean): 1.0 µM (≈ 3.16 µg/mL)
  Acinetobacter baumannii MICGM: 1 µM
Pseudomonas aeruginosa
  Pseudomonas aeruginosa MICGM: 2.5 µM

## PKL: V681 with L-Lys at position 11, SEQ ID NO:17 (KWKSFLKTFKKAVKTVLHTALKAISS)
[3]
  Change in hydrophobicity (retention time) relative to PVL: -2.29 min

## D-NAL: enantiomer of NAD, SEQ ID NO:25 (KWKSFLKTFKSAAKTVLHTALKAISS; not fully specified; D-amino acids)
[4]
  PA (peptide self-association parameter): 4.1
